Laboratory results from paper PMC11591188, “First Report on Cationic Triphenylphosphonium Compounds as Mitochondriotropic H3R Ligands with Antioxidant Properties” (Antioxidants, 2024).
“And” between values parts separate entries of the source, which are not always exact repeats. Equal values may be shown once. Read-outs that look alike come from different tables or passages of the source.

Legend:
[1] = Oxygen radical absorbance capacity (ORAC-FL) assay; settings: mean Trolox equivalents with SEM, at least three independent experiments, 37 °C
Description: Antioxidant properties were analyzed using an oxygen radical absorbance capacity (ORAC) assay at 37 °C [27]. Solutions of the fluorescent probe fluorescein at 100 nM and test ligands at concentrations between 20 µM and 6.25 µM were incubated for 15 min in potassium phosphate buffer (75 mM, pH 7.4) protected from light in black 96-well plates at 37 °C. Then, 2,2′-azobis (2-amidinopropane) dihydrochloride (AAPH) was added as a peroxyl radical generator. The fluorescence intensity ([…]) was measured every minute for 90 min. 6-Hydroxy-2,5,7,8-tetramethylchroman-2-carboxylic acid (Trolox) was used as a standard at concentrations between 20 µM and 6.25 µM. Data were obtained in duplicate from at least three independent experiments and evaluated using GraphPad Prism 7.02. Fluorescence intensity was normalized to that of the blank (without AAPH). The area under the fluorescence decay curve for each antioxidant (AUCantioxidant) and for the negative control without antioxidants (AUCnegative control) were calculated for each concentration by summing the fluorescence intensities at each time point. AUCnegative control was subtracted from the AUCantioxidant to calculate the net AUC. Linear regression of the net AUC against the corresponding antioxidant concentration was performed. The ratios of the antioxidant and Trolox slopes from the same experiment were calculated. Thus, ORAC values were expressed as Trolox equivalents [TE], and caffeic acid was used as a reference.

[2] = Cytotoxic effects on SH-SY5Y cells after 24 h (alamar blue viability assay); format: cell-based; settings: human, SH-SY5Y neuroblastoma cells, 24 h, 95% confidence interval, at least three independent experiments, read-out: LC50
Description: (§1) The cytotoxic effects of the tested ligands on neuroblastoma SH-SY5Y cells were determined using the alamar blue viability assay. SH-SY5Y cells were grown in Minimum Essential Medium Eagle (MEME) supplemented with non-essential amino acids, 10% FBS, 100 µg/mL penicillin, 100 units/mL streptomycin, and 2 mM L-glutamine at 37 °C in a humidified atmosphere of 5% CO2. SH-SY5Y cells were seeded in 96-well plates at a density of 8.0 × 10^3 cells per well and grown at 37 °C in a humidified atmosphere of 5% CO2. 24 h after seeding, the test ligands were added at concentrations between 30 µM and 1 nM in a final assay volume of 100 µL per well and incubated for 24 h. Cells treated with 1-methyl-4-phenylpyridinium iodide (MPP+) served as a positive control for cytotoxic effects. The concentration of DMSO was limited to 1% for all the assay points. The medium supplemented with the test compounds was discarded, and 100 µL of resazurin solution in RPMI-1640 medium (44 µM) was added. After two hours of incubation at 37 °C in a humidified atmosphere of 5% CO2, fluorescence intensity ([…]) was determined. Data were obtained in duplicate from at least three independent experiments. LC50 values were evaluated using GraphPad Prism 7.02. using a nonlinear regression. Mean values and 95% confidence intervals were calculated using −log(Ki) and converted to nanomolar concentrations.

[3] = test system: SH-SY5Y cells; experiment: as above; format: cell-based; settings: for effects on cell viability: concentrations below 1 µM
Description: as §1

[4] = target: T1, hH3R (Homo sapiens, UniProt Q9Y5N1); experiment: hH3R radioligand displacement assay ([3H]Nα-methylhistamine, HEK-293-hH3R membranes); format: binding
T1 construct: expressed in transfected cells; host or cells: HEK-293 cells stably expressing hH3R
T1 sequence (Q9Y5N1 whole entry): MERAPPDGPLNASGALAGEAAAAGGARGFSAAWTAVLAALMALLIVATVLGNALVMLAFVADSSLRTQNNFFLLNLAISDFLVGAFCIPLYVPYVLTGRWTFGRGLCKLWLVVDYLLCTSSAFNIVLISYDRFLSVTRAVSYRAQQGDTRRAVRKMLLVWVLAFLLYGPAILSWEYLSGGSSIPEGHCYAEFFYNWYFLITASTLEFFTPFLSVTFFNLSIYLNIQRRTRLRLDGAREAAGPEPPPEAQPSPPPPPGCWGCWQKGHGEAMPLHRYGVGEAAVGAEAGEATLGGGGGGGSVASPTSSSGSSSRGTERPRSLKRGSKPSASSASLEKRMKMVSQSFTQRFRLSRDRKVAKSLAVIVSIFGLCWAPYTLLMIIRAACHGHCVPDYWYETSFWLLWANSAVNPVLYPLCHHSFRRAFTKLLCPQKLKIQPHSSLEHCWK
Description: Radioligand displacement assays were performed on the membrane fractions of HEK-293 cells stably expressing hH3R455, which occurs mainly in the brain, as described previously with slight modifications. HEK-293-hH3R cells were grown in Dulbecco’s Modified Eagle Medium (DMEM) supplemented with 10% FBS, 100 µg/mL penicillin, 100 units/mL streptomycin, and 10 mM HEPES solution at 37 °C in a humidified atmosphere of 5% CO2. To prepare membrane fractions, cells were washed in a phosphate-buffered saline (PBS) solution and harvested. The cells were centrifuged at 3000× g for 10 min at 4 °C and homogenized with Ultraturrax® in ice-cold binding buffer (75 mM Tris-HCl, 10 mM MgCl2, 100 mM NaCl, pH 7.4). The homogenate was centrifuged twice (20,000× g, 20 min, 4 °C) and reconstituted in an ice-cold binding buffer. Test ligands, radiolabeled ligands, and membrane fractions (20 µg/well) were added to 96-well plates to a final assay volume of 200 µL. After 90 min of incubation with shaking at 25 °C, a cell harvester was used to separate bound from free ligands by filtration through GF/B filters pretreated with 0.3% (m/v) polyethylenimine. Radioactivity was determined by liquid scintillation counting. […] The test ligands were evaluated at concentrations between 100 µM and 0.03 nM. […] Specific binding was calculated by subtracting non-specific binding from the raw data. Data were obtained in duplicate from at least three independent experiments and analyzed using GraphPad Prism 7.02. using a nonlinear regression. The Cheng–Prusoff equation was used to calculate Ki values from the IC50 values. Mean values and 95% confidence intervals were calculated using −log(Ki) and converted to nanomolar concentrations.
S4. hH3R Radioligand Displacement Assay
Radioligand displacement assays were performed on the membrane fractions of HEK-293 cells stably expressing hH3R. Cultivation of hH3R-HEK-293 cells and membrane preparation was performed as described previously. [3H]Nα-Methylhistamine was used as the radiolabeled probe at a final […]
-log(Ki) was used to calculate mean values and 95% confidence intervals.
Figure S13. hH3R competition binding curve of compounds 6a
Figure S14. hH3R competition binding curve of compounds 6b […]

[5] = target: T1, hH3R; settings: cited from earlier work
[6] = Table 2, from Ki, read-out: pKi (converted)
[7] = [3H]Nα-methylhistamine displacement on HEK-293-hH3R membranes, 95% confidence interval, at least three independent experiments, read-out: hH3R Ki

SMILES | ORAC [1] | CC50 at 24 h [2] [nM] | Ki [4, 6] [nM] | Ki [4, 7] [nM] | further results
O=C(O)/C=C/c1ccc(O)c(O)c1 [Caffeic acid, reference compound] | 3.08 ± 0.13 TE | – | – | – | –
c1ccc([P+](CCCCOc2ccc(OCCCN3CCCCC3)cc2)(c2ccccc2)c2ccccc2)cc1 [Compound 6a] | 1.04 ± 0.03 TE | 40000 | 32 | 32 | effects on cell viability [3]: no significant effects on cell viability
[Br-].c1ccc([P+](CCCCCOc2ccc(OCCCN3CCCCC3)cc2)(c2ccccc2)c2ccccc2)cc1 [Compound 6b, Triphenyl-(5-(4-(3-(piperidin-1-yl)propoxy)phenoxy)pentyl)phosphonium bromide] | 0.70 ± 0.01 TE | 21800 | 17.6 | 17.6 | effects on cell viability [3]: no significant effects on cell viability
c1ccc([P+](CCCCCCOc2ccc(OCCCN3CCCCC3)cc2)(c2ccccc2)c2ccccc2)cc1 [Compound 6c, Triphenyltriphenyl-(6-(4-(3-(piperidin-1-yl)propoxy)phenoxy)hexyl)phosphonium bromide] | 0.54 TE and 0.54 ± 0.03 TE | 11200 | 31.5 | 31.5 | –
c1ccc([P+](CCCCCCCCOc2ccc(OCCCN3CCCCC3)cc2)(c2ccccc2)c2ccccc2)cc1 [Compound 6d, Triphenyltriphenyl-(8-(4-(3-(piperidin-1-yl)propoxy)phenoxy)octyl)phosphonium bromide] | 0.89 ± 0.16 TE | 2690 | 20.4 | 20.4 | –
c1ccc([P+](CCCCCCCCCOc2ccc(OCCCN3CCCCC3)cc2)(c2ccccc2)c2ccccc2)cc1 [Compound 6e, Triphenyltriphenyl-(9-(4-(3-(piperidin-1-yl)propoxy)phenoxy)nonyl)phosphonium bromide] | 1.07 ± 0.06 TE | < 1000 | 14.1 | 14.1 | CC50 ([3]; 24 h, 95% confidence interval, at least three independent experiments, read-out: LC50 (the source's name)): 910 nM
c1ccc([P+](CCCCCCCCCCOc2ccc(OCCCN3CCCCC3)cc2)(c2ccccc2)c2ccccc2)cc1 [Compound 6f, Triphenyltriphenyl-(10-(4-(3-(piperidin-1-yl)propoxy)phenoxy)decyl)phosphonium bromide] | 0.59 ± 0.06 TE | 2610 | – | 67.4 | Ki ([4]; Table 2, biological activity repeated next to the IFD results, read-out: Ki): 67.4 nM
CN1CCc2ccc(OCCCN3CCCCC3)cc2C1=O [Compound I] | – | – | – | – | Ki ([5]; Figure 1, read-out: hH3R Ki): 23 nM
CCNC(=O)[C@H]1C[C@@](F)(c2ccc(CN3CCCC3)c(F)c2)C1 [PF-03654746] | – | – | – | – | Ki ([5]; Table 2, co-crystallized ligand of 7F61, read-out: Ki): 3.2 nM
CNCCc1cnc[nH]1 [[^3H]N^α-methylhistamine, reference compound] | – | – | – | – | Kd ([4]; probe used at a final concentration of 2 nM, read-out: Kd of the radiolabeled probe): 3.08 nM
